The test system of one data set is Hepatitis B virus (HBV). The data set can be described thus: Anti-HBV assay in 2.2.15 cells (virion DNA, HBV RI). Particulars: 9 days; for EC90: 10 fold inhibition. The format is cell-based. On the procedure: The anti-HBV assays were performed according to the published protocol of Korba and Milman, (Korba, B. E.; Milman, G. Antiviral Res., 15, 217 1991), using cultures of 2.2.15 cells. In brief, the assay consisted of (a) seeding the chronically HBV-producing human liver cells (Acs et al. Proc. Nat. Acad. Sci., 84, 464 1987) into 24-well tissue culture plates, and growing to confluence, (b) adding test compounds daily for a continuous 9-day period, harvesting culture media after day 9 and (c) lysing treated cells 24 hours following day 9 of treatment for the analysis of extracellular virion DNA and intracellular HBV genomic forms.
Anti-HBV activity and the toxicity against confluent 2.2.15 cells were determined by the previously described procedure (Korba, B. E., et al. Antivir. Res., 19:55-70, 1992; Korba, B. E., et al. Antivir. Res., 15:217-228, 1991). Briefly, confluent cultures of HBV transfected 2.2.15 cells were maintained on either 96-well or 24-well flat-bottomed tissue culture plates in RPMI 1640 medium with 2% fetal bovine serum (FBS). The cells were treated with test compounds daily for nine consecutive days. The culture media were harvested on day 9 to quantify the amount of virion DNA. On day 10, the cells were lysed to quantify the amount of intracellular HBV replicative intermediates (RI). The quantification of virion DNA and the HBV RI were done by blot hybridization methods (Korba, B. E., et al. Antivir. Res., 19:55-70, 1992; Korba, B. E., et al. Antivir. Res., 15:217-228, 1991). Cellular toxicity against separate cultures of confluent 2.2.15 cells was measured after treatment with the compounds for nine days under identical culture conditions as those used for the antiviral assay (Korba, B. E., et al. Antivir. Res., 19:55-70, 1992). Uptake of neutral red dye by treated cells was compared with dye uptake by untreated control cells (Korba, B. E., et al. Antivir. Res., 19:55-70, 1992).

In a further data set the target is T1, rabbit liver guanase (Oryctolagus cuniculus, UniProt G1T386).
T1 construct: employing rabbit liver guanase; from tissue; host or cells: rabbit liver
T1 sequence (G1T386 1-454): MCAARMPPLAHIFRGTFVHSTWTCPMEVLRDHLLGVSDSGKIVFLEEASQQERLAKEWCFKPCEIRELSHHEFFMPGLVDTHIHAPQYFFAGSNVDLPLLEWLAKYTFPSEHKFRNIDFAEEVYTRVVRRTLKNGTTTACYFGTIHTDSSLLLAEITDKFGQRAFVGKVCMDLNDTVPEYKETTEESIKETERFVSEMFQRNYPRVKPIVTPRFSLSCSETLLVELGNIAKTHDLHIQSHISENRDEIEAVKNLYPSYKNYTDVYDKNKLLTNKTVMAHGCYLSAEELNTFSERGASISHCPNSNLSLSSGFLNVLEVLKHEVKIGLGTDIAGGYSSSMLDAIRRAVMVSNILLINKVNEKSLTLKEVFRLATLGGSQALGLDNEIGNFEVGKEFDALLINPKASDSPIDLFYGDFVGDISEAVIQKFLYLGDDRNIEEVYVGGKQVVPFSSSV
In words: Inhibition of guanase (Examples 10 and 11). It is filed as biochemical. The settings on record: Lineweaver-Burk plot; for Ki: Tris buffer pH 7.6, 21° C., substrate guanine. The source says:
The concentration of the inhibitor ranged from 4×10^−5 M to 8×10^−5 M (Example 7), and 4.4×10^−5 M to 8.9×10^−5 M (Example 8). The concentration of the enzyme used for each assay was 0.0082 units/mL.

Another data set has as its system HCMV. The data set can be described thus: Cytopathic effect (CPE) inhibition assay, CMV in HFF cells. Particulars: for EC50: Human betaherpesvirus 5, HFF, 336 h, read-out: Antiviral Activity (EC50), anti-HCMV; for SI (Selectivity Index), Neutral Red Uptake: IC50 (neutral red, stationary HFF) divided by anti-HCMV EC50; for SI (Selectivity Index), HFF Cells: IC50 (rapidly growing HFF) divided by anti-HCMV EC50. (Damage to the host cells serves as the signal in cytopathic effect assays.)

A short description of data set [1]: Cell proliferation assay, rapidly growing HFF cells. It is filed as cell-based. The settings on record: human, rapidly growing human foreskin fibroblast (HFF) cells; for IC50 at 72 h: rapidly growing HFF cells, read-out: Cytotoxicity (IC50), HFF Cells. As for the experimental part: The toxicity of Compounds 14-1 and 14-2 was also measured in rapidly growing human foreskin fibroblast (HFF) cells and Daudi cells by cell proliferation assay (National Institute of Allergy and Infectious Diseases (NIAID), NIH, Bethesda, Md.). According to the assay method, the appropriate cells were seeded in six-well plates in MEM containing 10% FBS. Twenty four hours later, the cells were treated with several dilutions of the test compounds covering a range of 0.03-100 μg/ml. The plates were incubated in a CO2 incubator at 37° C. for 72h. The cells were washed after removing the media and subsequently released from the plate wells by the addition of 1 ml of 0.25% trypsin. The contents in the wells were mixed, diluted with Isotone III and counted using a Coulter counter. The CC50 values (concentration of compound giving 50% inhibition of cell proliferation) were calculated by linear regression analysis. Toxicity of Compound 14-1 was also evaluated in bone marrow precursor cells by previously published procedure (Sommadossi, J.-P., et al., Biochem. Pharmacol., 44:1921-1925, 1992).
(A) Cell Proliferation Assay: Twenty-four hours prior to assay, cells (HFF or Daudi) were seeded in six-well plates at a concentration of 2.5×10^4 cells per well in MEM containing 10% FBS. On the day of the assay, drugs were diluted serially in MEM containing 10% FBS at increments of 1:5 covering a range from […]. For drugs that had to be solubilized in DMSO, control wells receive MEM containing 10% DMSO. The media from the wells was then aspirated, and 2 mL of each drug concentration was added to each well. The cells were incubated in a CO2 incubator at 37° C. for 72 h. At the end of this time, the media-drug solution was removed, and the cells were washed. Trypsin-EDTA (0.25%, 1 mL) was added to each well and incubated until the cells started to come off the plate. The cell-media mixture was then pipeted up and down vigorously to break up the cell suspension and 0.2 mL of the mixture added to 9.8 mL of Isoton III and the cells were counted using a Coulter Counter. Each sample was counted three times with two replicate wells per sample. The IC50 values were calculated using a computer program.

Data set [2] in a line: Neutral red uptake assay, stationary HFF cells. The format is cell-based. Particulars: human, read-out: Cytotoxicity (IC50), Neutral Red Uptake. On the procedure:
(B) Neutral Red Uptake Assay: Twenty-four hours prior to assay, HFF cells were plated into 96-well plates at a concentration of 2.5×10^4 cells/well. After 24 h, the media was aspirated, and […] of media containing drug was added to the first row of wells and then diluted serially 1:5 using the automated Cetus Liquid Handling System. The plates were then incubated in a Co2 incubator at 37° C. for 7 days. At this time the media/drug was removed, cells were washed, 200 μL/well of 0.01% neutral red in PBS was added, and the mixture was incubated for 1 h. The dye was removed, and the cells were washed using a Nunc Plate Washer. After the wash was removed, […] of 50% ethanol/1% aqueous acetic acid was added. The plates were placed on a rotating shaker for 15 min, and the optical densities were then read at 540 nm using a plate reader.
Data Analysis: Dose-response relationships were constructed by linearly regressing the percent inhibition of parameters derived in the preceding sections against log drug concentrations. Fifty-percent inhibitory (IC50) concentrations were calculated from the regression lines.

In general, EC90 refers to the point of the concentration-response curve where the effect stands at 90%. A word on the EC50: it is the concentration at which the effect is half-maximal. A word on the Ki: it is a dissociation constant, usually derived from enzyme kinetics or from competition with a known ligand. Low values mean a stronger hold on the target, high ones a looser hold on the target. In general, melting point refers to the temperature, or range, at which the solid turns liquid. The IC50 is the point on the concentration scale where inhibition reaches its midpoint. In general, CC50 refers to the concentration giving 50% cytotoxicity. Low readings indicate greater toxicity to the cells, high ones lower toxicity to the cells.

Each structure is given as a SMILES string. In brackets after ≈: the same amount, converted by molar mass. Read-outs that look alike come from different tables or passages of the source. Some results are limits rather than exact numbers.

Description for HCMV: Cytopathic Effect (CPE) Inhibition Assay: Low passage HFF cells were seeded into 96-well tissue culture plates 24 h prior to use at a cell concentration of 2.5×10^5 cells/mL in 0.1 mL of MEM supplemented with 10% FBS. The cells were incubated for 24 h at 37° C. in a CO2 incubator. After incubation, the medium was removed, and 100 μL of MEM containing 2% FBS was added to all but the first row. In the first row, 125 μL of experimental drug was added in triplicate wells. Medium alone was added to both cell and virus control wells. The drug in the first row of wells was then diluted serially 1:5 throughout the remaining wells by transferring 25 μL using the Cetus Liquid Handling Machine. After a 1 h incubation, 100 μL of the appropriate virus concentration was added to each well, excluding cell control wells which received 100 μL of MEM. The virus concentration added was 2500 pfu per well. The plates were then incubated at 37° C. in a CO2 incubator for 14 days. An additional 50 μL of MEM was added on day 7. After the incubation period, media was aspirated, and the cells were stained with a 5% crystal violet/ethanol/formaldehyde solution for 4 h. The stain was then removed, and the plates were rinsed with tap water until all excess stain was removed. The plates were allowed to dry for 24 h and then read on a Bio-Tek Instruments Microplate reader at 630 nm.

As to `Nc1ccn([C@H]2CS[C@@H](CO)O2)c(=O)n1` [Compound 3TC, 2′,3′-dideoxy-L-3′-thiacytidine, reference compound], the EC90 with Hepatitis B virus (HBV) (extracellular HBV virion DNA, read-out: EC90 Virion) amounted to 198 ± 20 nM; in the data set with Hepatitis B virus (HBV) (intracellular HBV DNA replicative intermediates, read-out: EC90 HBV RI), 922 ± 85 nM. The EC50 was determined as 65 ± 10 nM with Hepatitis B virus (HBV) (extracellular HBV virion DNA, read-out: EC50 Virion) and 172 ± 19 nM in the data set with Hepatitis B virus (HBV) (intracellular HBV DNA replicative intermediates, read-out: EC50 HBV RI).
With `COC(=O)C1(OC)NC(=O)c2[nH]cnc2NC1=O` (stereo not shown) [Example 8, 6-Methoxy-6-methoxycarbonyl-4,5,7,8-tetrahydro-6H-imidazo[4,5-e][1,4]-diazepine-5,8-dione], at rabbit liver guanase, the “mode of inhibition of guanase” value is on record as “competitive inhibitors” and the Ki amounted to 540000 nM.
`O=C1c2nc(Br)n(Cc3ccccc3)c2N(Cc2ccccc2)C(=O)CN1Cc1ccccc1` [Compound 19, 3,4,7-Tribenzyl-2-bromo-4,5,7,8-tetrahydro-6H-imidazo [4,5-e][1,4]diazepine-5,8-dione]: the melting point lay in the range of 174 to 176 °C. For the same compound, in the data set on HCMV, the EC50 is 8.1 µg/mL (≈ 15.7 µM); the “SI (Selectivity Index), Neutral Red Uptake” value came out at 10.9; the “SI (Selectivity Index), HFF Cells” value was determined as 6.98. In data set [1], the IC50 at 72 h was determined as 56.5 µg/mL (≈ 110 µM). Besides, in data set [2], the IC50 at 7 days was 88.1 µg/mL (≈ 171 µM).
Take `N=c1nc(N)c2ncn(Cc3ccccc3)c2c(N)n1` [Example 3, 4,8-Diamino-1-benzyl-6-iminoimidazo[4,5-e][1,3]diazepine]: the melting point fell in the range of 202 to 204 °C.
Still for that read-out and setting: as for `N=c1nc(N)c2nc[nH]c2c(N)n1` [Example 1, 4,8-Diamino-6-imino-1H-imidazo[4,5-e][1,3]diazepine], the figure is more than 220 °C.
For `Nc1nc(O)c2ncn(COC(CO)CO)c2n1` [Ganciclovir, reference compound], in the data set on HCMV, the EC50 came out at 0.05 µg/mL (≈ 0.196 µM); the “SI (Selectivity Index), Neutral Red Uptake” value is more than 2000; the “SI (Selectivity Index), HFF Cells” value is recorded as 800. The compound also had a CC50 at 72 h in data set [1] (Rapidly growing HFF cells) of more than 40 µg/mL. Further, the IC50 at 72 h in data set [1] was 40 µg/mL (≈ 157 µM). The IC50 at 7 days in data set [2] was more than 100 µg/mL.
Consider `COC(=O)C1(N)NC(=O)c2[nH]cnc2NC1=O` (stereo not shown) [Example 7, 6-Amino-6-methoxycarbonyl-4,5,7,8-tetrahydro-6H-imidazo[4,5-e]-[1,4]diazepine-5,8-dione], for which, on rabbit liver guanase, the “mode of inhibition of guanase” value is recorded as “competitive inhibitors” and the Ki came out at 190000 nM.

The record behind these values is patent US6677310B1, “Ring-expanded nucleosides and nucleotides” (Nabi, priority 1999, dated 2004).
